One assay has as its target T1, PfCDPK4 (Plasmodium falciparum, UniProt Q8IBS5).
T1 construct: made in house
Kind of assay: CDPK enzyme activity assay, PfCDPK4. It counts as biochemical, P. falciparum. As to the method:
(§1) Recombinant expression of PfCDPK1, PfCDPK4, TgCDPK1 WT, TgCDPK1-G128M, CpCDPK1 and CpCDPK1-G152 M were purified as previously described. […] These reactions were performed in a buffer composed of 1 mM EGTA (pH 7.2), 10 mM MgCl2, 20 mM HEPES pH 7.5 (KOH), 0.1% BSA. The reactions were initiated with addition of 10 μM ATP and 2 mM CaCl2 as enzyme activation reagent. Reaction plates were incubated for 90 min with 90 rpm agitation at 30 °C. […] KinaseGlo (Promega) luminescence-based assay in which luminescence is inversely related to kinase activity and […] was used as previously described.

Assay [1] relates to T. gondii tachyzoites, parental control. Description: Proliferation EC50, host fibroblast nuclei count, parental control. It counts as cell-based. The note with it: Toxoplasma gondii. As to the method: (§2) Human Foreskin Fibroblasts (HFF) were cultured in DMEM, with D-glucose (4.5 g/L), L-glutamine, and sodium pyruvate (110 mg/L) (Gibco) that were further supplemented with 10% Fetal Clone 1 serum (FCS)(HyClone), 50 U/mL penicillin (Gibco), […] streptomycin (Gibco), and 1× GlutaMax (Gibco). HFF cells were cultured in T25 flasks (Corning) in a humidified incubator at 37 °C and 5% CO2. For culture, media was replaced with DMEM, as described above, with 1% FCS. Mutant strains were created as described in.
(§3) Presence of desired mutations in parasite lines, TgCDPK1^G128M, TgCDPK1^G128M + TgMAPKL1^L162Q and […] was verified through sequencing. Compounds were dissolved in DMSO and serially diluted 4-fold across the first 10 wells of a 96 well plate, with the highest drug concentration in the first column being 25 μM. The strain of was then added to the first 11 columns of the 96-well plate at a density of 4000 parasites per well. The 11th column contained no compounds, and the 12th column contained no parasites and no compound. After 5 days of incubation at 37 °C and 5% CO2, cells were washed with PBS and fixed with 4% PFA in PBS (Thermo Fisher Scientific, Waltham, MA, USA). After fixing, cells were washed three times with PBS and stained with 300 nM DAPI in PBS before being washed again three times with PBS.
(§4) Images were acquired in an ImageXpress Pico Automated Cell Imaging System (Molecular Devices, San Jose, CA, USA) with a 4× objective using UV fluorescence. Following imaging, ImageXpress software was used to count objects with a fluorescence intensity ≥8 and a size of 12–30 μm, giving a total count of host cell nuclei for each well. EC50 were determined based on the number of remaining fibroblast nuclei using a nonlinear regression analysis with GraphPad Prism software version 10.0.0 for Windows, GraphPad Software, Boston, Massachusetts USA. Each compound was tested in ≥3 experiments in quadruplicate rows.

The target of a further assay is T2, TgCDPK1-G128M (Toxoplasma gondii, UniProt Q9BJF5, G128M).
T2 construct: made in house
Kind of assay: CDPK enzyme activity assay, TgCDPK1 G128M. It counts as biochemical, T. gondii. The note with it: for TgCDPK1 G128M mutant enzyme less sensitive: G128M versus WT enzyme. As to the method: as §1

Assay [2] relates to T. gondii tachyzoites expressing TgCDPK1 G128M. Description: Proliferation EC50, host fibroblast nuclei count, TgCDPK1 G128M mutant. It counts as cell-based. The note with it: for EC50 for G128M parasites higher compared to the parental strain: TgCDPK1 G128M versus parental; for EC50: Toxoplasma gondii, Fibroblast, read-out: T. gondii EC50 (±SD) CDPK1 G128M. As to the method: as §2, §3, §4

Assay [3] deals with T. gondii tachyzoites expressing TgCDPK1 G128M; TgMAPKL-1 L162Q. Kind of assay: Proliferation EC50, host fibroblast nuclei count, double mutant. It counts as cell-based. As to conditions: for EC50: Toxoplasma gondii, Fibroblast, read-out: T. gondii EC50 (±SD) CDPK1 G128M, MAPKL1 L162Q. As to the method:
as §2, §3, §4

A further assay deals with PfPKG (Plasmodium falciparum, UniProt Q8I719). Description: PfPKG enzyme activity assay, recombinant WT. In kind it is biochemical. As to the method:
(§5) Direct inhibition of recombinant PfPKG phosphorylation activity was carried out using a previously described nonradioactive assay. The assay evaluates PfPKG activity based on changes in initial ATP concentration via luminescence after enzyme phosphorylation of peptide substrate PKCtide ([…]) (SignalChem, Richmond, BC Canada). Enzyme kinase activity was measured in the presence of 26 μM PKCtide; 50.1 nM PfPKG; and 20 μM cGMP in a buffered solution containing 20 mM β-glycerol-phosphate, 20 mM MgCl2, 25 mM HEPES pH 7.5 (KOH), 0.1% BSA and 2 mM DTT. The reaction was activated by the addition of 10 μM ATP with incubation at 30 °C and 90 rpm agitation for 120 min. […] Each assay plate contained reaction wells with no enzyme, no PKCtide peptide substrate and no cGMP as internal controls.

The test system of assay [4] is P. falciparum 3D7 (WT) asexual stage parasites. Description: Growth inhibition assay, asexual stage parasites, WT 3D7. It counts as cell-based. The note with it: Plasmodium falciparum; 3D7 asexual stage parasites, 72 h; mean ± SD, n = 1–2. As to the method: lines were maintained with O+ human erythrocytes (BioIVT). WT 3D7A10 and T618Q parasites were kind gifts from Dr. David Fidock (Columbia University) and Dr. David Baker (London School of Tropical Medicine and Hygiene), respectively. Growth inhibition assays were performed as previously described. Parasites were grown in RPMI 1640 medium (Sigma-Aldrich, St. Louis, MO, U.S.A.) supplemented with 5 mg/mL Albumax (Gibco), 50 μg/mL hypoxanthine (Sigma-Aldrich), 2 mg/mL Na2CO3 (Sigma-Aldrich), 25 mM HEPES, and 50 μg/mL gentamicin (Gibco). The growth assay was initiated with cultures with >80% ring stage parasites, diluted to a parasitemia of 0.4% and a hematocrit of 1%. Parasites were transferred to a 96-well plate with test compounds, vehicle, or DHA as positive control, and maintained for 72 h in 5% CO2, 5% O2, and 90% N2 in a humidified chamber. Parasite viability at 72 h was determined by addition of SYBR Green I nucleic acid stain (Thermo Fisher Scientific, S7563) and Mitotracker Deep Red (Fisher M422426) followed by flow cytometry on a BD FACSVerse using BD FACSuite software. Data acquired were analyzed using Flowjo software. EC50 values were derived by nonlinear regression in Graph Pad Prism 7.

The target in another assay is T3, PfCDPK1 (Plasmodium falciparum, UniProt P62344).
T3 construct: made in house
Description: CDPK enzyme activity assay, PfCDPK1. It counts as biochemical, P. falciparum. As to the method: as §1

A further assay deals with PfPKG T618Q (Plasmodium falciparum, UniProt Q8I719, T618Q). Description: PfPKG enzyme activity assay, T618Q gatekeeper mutant. In kind it is biochemical, P. falciparum. As to the method:
as §5

For a further assay, the target named is T4, CpCDPK1-G152M (Cryptosporidium parvum, UniProt A3FQ16, G152M).
T4 construct: made in house
Kind of assay: CDPK enzyme activity assay, CpCDPK1 G152M. It counts as biochemical, C. parvum. As to conditions: for CpCDPK1 G152M mutant enzyme less sensitive: G152M versus WT enzyme. As to the method:
as §1

Setting [5] is: read-out: T. gondii EC50 (±SD) CONTROL, tachyzoites, parental control of CDPK1 G128M, mean ± SD, n = 3–5.
Setting [6] is: read-out: T. gondii EC50 (±SD) CONTROL, tachyzoites, parental control of PKG T761Q, mean ± SD, n = 3–5.
Where [7] appears, read: read-out: T. gondii EC50 (±SD) CONTROL, tachyzoites, parental control of the double mutant, mean ± SD, n = 3–5.

SMILES strings stand for the structures. Like-named read-outs stand apart in the source and are kept apart here.

Data on 2 compounds can be found in publication PMC12333026, “Versatile Imidazole Scaffold with Potent Activity against Multiple Apicomplexan Parasites” (ACS Infectious Diseases, 2025).

T2 sequence (Q9BJF5 whole entry G128M): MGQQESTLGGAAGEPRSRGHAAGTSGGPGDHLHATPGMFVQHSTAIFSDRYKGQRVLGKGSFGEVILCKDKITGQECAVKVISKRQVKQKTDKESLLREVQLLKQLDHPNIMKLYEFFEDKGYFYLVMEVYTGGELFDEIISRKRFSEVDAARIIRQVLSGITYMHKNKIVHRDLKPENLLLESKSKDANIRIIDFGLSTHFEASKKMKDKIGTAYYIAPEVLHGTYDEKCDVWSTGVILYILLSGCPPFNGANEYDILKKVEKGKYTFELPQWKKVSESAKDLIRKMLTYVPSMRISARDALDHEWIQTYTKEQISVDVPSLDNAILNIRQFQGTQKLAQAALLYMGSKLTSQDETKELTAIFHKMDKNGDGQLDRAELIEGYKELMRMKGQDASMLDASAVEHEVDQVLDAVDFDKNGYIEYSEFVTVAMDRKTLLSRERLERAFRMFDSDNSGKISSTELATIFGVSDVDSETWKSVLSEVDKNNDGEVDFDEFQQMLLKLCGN
T4 sequence (A3FQ16 whole entry G152M): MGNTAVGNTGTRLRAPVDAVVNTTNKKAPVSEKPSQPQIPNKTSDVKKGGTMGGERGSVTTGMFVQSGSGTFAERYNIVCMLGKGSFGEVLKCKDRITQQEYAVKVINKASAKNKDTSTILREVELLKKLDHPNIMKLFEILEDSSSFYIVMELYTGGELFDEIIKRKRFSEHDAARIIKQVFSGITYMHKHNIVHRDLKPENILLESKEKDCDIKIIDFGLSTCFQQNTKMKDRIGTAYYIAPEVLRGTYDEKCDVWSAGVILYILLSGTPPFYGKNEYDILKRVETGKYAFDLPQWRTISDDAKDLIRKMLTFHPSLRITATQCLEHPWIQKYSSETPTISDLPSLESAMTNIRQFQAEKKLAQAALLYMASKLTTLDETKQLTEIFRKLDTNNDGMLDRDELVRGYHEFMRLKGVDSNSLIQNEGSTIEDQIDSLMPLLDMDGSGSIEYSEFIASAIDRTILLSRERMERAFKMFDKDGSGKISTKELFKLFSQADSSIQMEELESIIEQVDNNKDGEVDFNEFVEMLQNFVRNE
Sequence of PfPKG T618Q (Q8I719 whole entry T618Q): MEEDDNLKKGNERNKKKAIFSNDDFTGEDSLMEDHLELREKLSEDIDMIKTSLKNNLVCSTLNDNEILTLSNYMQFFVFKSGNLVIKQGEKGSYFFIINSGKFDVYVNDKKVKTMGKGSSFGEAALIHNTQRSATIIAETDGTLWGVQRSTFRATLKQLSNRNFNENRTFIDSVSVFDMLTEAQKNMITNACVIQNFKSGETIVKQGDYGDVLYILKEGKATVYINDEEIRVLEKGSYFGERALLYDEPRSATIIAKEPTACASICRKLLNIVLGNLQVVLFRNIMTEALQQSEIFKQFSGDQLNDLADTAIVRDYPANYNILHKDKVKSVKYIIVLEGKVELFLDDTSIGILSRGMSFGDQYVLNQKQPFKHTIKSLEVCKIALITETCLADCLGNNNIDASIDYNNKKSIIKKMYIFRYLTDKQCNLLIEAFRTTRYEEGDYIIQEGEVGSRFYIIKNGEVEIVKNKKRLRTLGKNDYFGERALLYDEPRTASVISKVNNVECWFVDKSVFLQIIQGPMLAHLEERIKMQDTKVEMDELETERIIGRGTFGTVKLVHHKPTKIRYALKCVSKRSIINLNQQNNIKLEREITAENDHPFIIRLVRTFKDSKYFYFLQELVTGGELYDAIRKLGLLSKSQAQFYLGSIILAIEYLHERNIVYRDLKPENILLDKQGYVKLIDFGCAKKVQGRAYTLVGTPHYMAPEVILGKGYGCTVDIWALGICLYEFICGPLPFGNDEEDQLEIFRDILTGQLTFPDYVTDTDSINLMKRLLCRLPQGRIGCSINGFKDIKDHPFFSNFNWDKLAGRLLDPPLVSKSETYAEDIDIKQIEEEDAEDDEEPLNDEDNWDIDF
T3 sequence (P62344 whole entry): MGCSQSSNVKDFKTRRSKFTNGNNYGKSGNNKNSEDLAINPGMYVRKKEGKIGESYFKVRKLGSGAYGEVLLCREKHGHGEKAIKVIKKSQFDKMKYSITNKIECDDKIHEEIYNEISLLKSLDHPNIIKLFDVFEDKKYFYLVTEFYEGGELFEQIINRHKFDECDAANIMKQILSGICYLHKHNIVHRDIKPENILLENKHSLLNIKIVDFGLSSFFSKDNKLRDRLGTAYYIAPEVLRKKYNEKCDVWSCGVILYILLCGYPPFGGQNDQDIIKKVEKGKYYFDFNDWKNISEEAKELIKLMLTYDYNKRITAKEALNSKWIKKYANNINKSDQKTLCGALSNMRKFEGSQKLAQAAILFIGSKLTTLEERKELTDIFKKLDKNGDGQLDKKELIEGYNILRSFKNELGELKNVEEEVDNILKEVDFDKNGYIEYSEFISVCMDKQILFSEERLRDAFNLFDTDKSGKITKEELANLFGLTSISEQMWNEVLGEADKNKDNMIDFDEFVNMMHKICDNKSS
Sequence of PfPKG (Q8I719 whole entry): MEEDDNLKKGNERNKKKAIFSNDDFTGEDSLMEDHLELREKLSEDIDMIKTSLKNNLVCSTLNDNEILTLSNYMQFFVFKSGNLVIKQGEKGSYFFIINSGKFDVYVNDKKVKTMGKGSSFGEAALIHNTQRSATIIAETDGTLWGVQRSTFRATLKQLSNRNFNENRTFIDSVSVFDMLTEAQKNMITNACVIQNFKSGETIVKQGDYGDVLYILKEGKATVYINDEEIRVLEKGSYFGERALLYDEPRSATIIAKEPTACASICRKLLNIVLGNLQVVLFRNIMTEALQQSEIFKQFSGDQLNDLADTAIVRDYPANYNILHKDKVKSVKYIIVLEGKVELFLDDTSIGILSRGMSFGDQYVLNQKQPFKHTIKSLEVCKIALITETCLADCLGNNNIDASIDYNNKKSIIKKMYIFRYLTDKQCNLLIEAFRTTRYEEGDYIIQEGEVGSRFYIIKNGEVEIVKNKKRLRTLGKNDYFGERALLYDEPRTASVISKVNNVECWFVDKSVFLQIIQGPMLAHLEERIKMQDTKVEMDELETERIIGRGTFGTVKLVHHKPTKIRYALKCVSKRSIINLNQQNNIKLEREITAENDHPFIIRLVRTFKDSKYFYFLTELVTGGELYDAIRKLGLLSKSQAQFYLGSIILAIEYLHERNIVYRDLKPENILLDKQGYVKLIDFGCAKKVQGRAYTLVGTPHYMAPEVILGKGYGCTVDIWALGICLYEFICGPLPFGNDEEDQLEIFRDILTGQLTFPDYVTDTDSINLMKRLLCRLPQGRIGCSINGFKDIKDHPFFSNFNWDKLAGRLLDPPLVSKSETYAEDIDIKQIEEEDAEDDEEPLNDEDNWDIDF
T1 sequence (Q8IBS5 whole entry): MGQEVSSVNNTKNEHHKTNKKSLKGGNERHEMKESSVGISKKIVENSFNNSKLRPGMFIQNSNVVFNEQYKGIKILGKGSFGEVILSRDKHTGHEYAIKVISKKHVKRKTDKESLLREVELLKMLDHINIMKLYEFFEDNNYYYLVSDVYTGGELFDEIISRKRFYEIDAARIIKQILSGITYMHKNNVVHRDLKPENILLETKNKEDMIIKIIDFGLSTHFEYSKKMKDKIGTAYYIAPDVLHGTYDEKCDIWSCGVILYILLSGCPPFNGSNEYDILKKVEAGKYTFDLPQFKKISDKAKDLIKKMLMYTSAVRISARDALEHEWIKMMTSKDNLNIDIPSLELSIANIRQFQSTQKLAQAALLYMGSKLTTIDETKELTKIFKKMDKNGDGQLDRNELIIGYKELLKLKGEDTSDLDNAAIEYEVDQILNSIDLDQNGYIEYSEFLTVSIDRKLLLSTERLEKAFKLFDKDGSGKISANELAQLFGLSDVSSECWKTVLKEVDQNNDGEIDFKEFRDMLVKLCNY

A word on the IC50: it is the point on the concentration scale where inhibition reaches its midpoint. Broadly, the EC50 is the concentration at which the effect is half-maximal. Regarding `O=C(c1nccs1)N1CC[C@@H](Nc2nccc(-n3cc(C4CC4)nc3-c3cccc(Cl)c3)n2)C1` [(R)-RY-1-185], the IC50 against PfCDPK4 is 2210 nM; on TgCDPK1-G128M it was over 30000 nM; at PfPKG, 190 nM; on PfCDPK1 (recombinant enzyme, mean ± SD, n = 2–3 experiments, read-out: enzyme IC50 (±SD) PfCDPK1 WT) it was 6690 nM; on PfPKG T618Q it was over 10000 nM; against CpCDPK1-G152M it was over 30000 nM. Besides, the EC50 is 150 nM in assay [1] (setting [5]); 100 nM in assay [1] (setting [6]); 120 nM in [1] (setting [7]); 94 nM in assay [1] (read-out: average EC50 against parental parasites, parental of TgPKG T761Q); 300 nM in assay [2]; 1210 nM in assay [3]. This compound also had an EC50 in [4] of 6500 nM. At TgCDPK1-G128M, the “TgCDPK1 G128M mutant enzyme less sensitive” value is reported as at least 600 fold. For the same compound, in assay [2], the “EC50 for G128M parasites higher compared to the parental strain” value came to 1.8 fold. Further, the “increase in EC50 against double mutant TgCDPK1 G128M; TgMAPKL-1 L162Q versus parental control” value in [3] is 9 fold. The “CpCDPK1 G152M mutant enzyme less sensitive” value at CpCDPK1-G152M was at least 300 ×.

For the compound `O=C(c1nccs1)N1CC[C@@H](Nc2nccc(-n3cc(C4CC4)nc3-c3ccccc3)n2)C1` [(R)-RY-1-165], the IC50 is 1700 nM at PfCDPK4; over 30000 nM against TgCDPK1-G128M; 240 nM on PfPKG (recombinant enzyme, ADP-Glo assay, mean ± SD, n = 2–3 experiments, read-out: enzyme IC50 (±SD) PfPKG WT); 10100 nM against PfCDPK1; over 10000 nM at PfPKG T618Q; over 30000 nM at CpCDPK1-G152M. Besides, the EC50 in assay [1] (setting [5]) is 860 nM; in assay [1] (setting [6]), 260 nM; in assay [1] (setting [7]), 540 nM; in [2] it was 1530 nM; in [3], 1570 nM; in [4], 11000 nM. Moreover, the “TgCDPK1 G128M mutant enzyme less sensitive” value on TgCDPK1-G128M is reported as “at least 500 fold”. The “EC50 for G128M parasites higher compared to the parental strain” value in assay [2] came out at 1.7 fold. For the same compound, the “CpCDPK1 G152M mutant enzyme less sensitive” value at CpCDPK1-G152M is “at least 175 ×”.
